According to patent US20110027296A1, “ANTIBODIES FOR TREATING CANCER” (UNIVERSIDAD DE BARCELONA, priority 2008, published 2011):
Bridge positions count the residues as written; N and C are the ends. Square brackets hold non-standard residues; d marks the D form. Peptide text beside a SMILES is read from it. * marks the point of attachment. NH(β-GlcNAc) = CC(=O)N[C@@H]1[C@@H](O)[C@H](O)[C@@H](CO)O[C@H]1N*; Dap = NC[C@H](N)C(=O)O

Tests used:
BCC = conditions: 1 nM antagonist; cited from earlier work
MDA-MB-231 = conditions: cytostatic and not cytotoxic effect; cited from earlier work
EGFR = EGFR phosphorylation by Western blot in MDA-MB-468 cells; format: cell-based; conditions: MDA-MB-468, 100 nM SP, time course
Procedure: FIG. 8A: to analyze the effects of SP on EGFR activation MDA-MB-468 cell line was treated with SP at 100 nM for the indicated times (in min). The levels of phospho-EGFR and phospho-Erk were determined by Western blot analysis. FIG. 8B: The effects of the inhibition of SP in the activation of EGFR were determined as for HER2. C means control.
For the analysis of substance P treatment on HER2 and EGFR activation, cells were seeded on dishes and growth until 80% confluence. After 24 hours of fetal deprivation, cells were treated at the indicated times with 100 nM SP. Cells were wash two times with cold PBS and rapidly frozen in a −80° C. freezer until protein extraction. […]
(§1) For protein extraction cells were lysated in ice-cold radioimmunoprecipitation assay buffer (Tris-HCl 50 mM, pH 7.4; NP-40 1%; Na-deoxycholate, 0.25%, NaCl 150 mM; EDTA 1 mM; PMSF 1 mM; proteinase inhibitors; Na3VO4 1 mM and NaF 1 mM) and sonicated for 10 seconds. After centrifugation (13000 g 5 min) supernatants were quantified for protein content. […] Chemiluminiscence of the bands was detected after ECL treatment (Amersham, Piscataway, N.J.) of membranes and subsequent analysis using a Fujifilm LAS3000 imaging system. Different intensities of bands were quantified using Image Gauge software, and correct Mr was compared with pre-stained protein standards (BioRad).

HER2 = HER2 phosphorylation and expression by Western blot in breast cancer cell lines; format: cell-based; conditions: SP 100 nM, FIG. 5
Procedure: In FIG. 5A, to analyze the effects of SP on HER2 activation different BC cell lines were treated with SP at 100 nM for the indicated times (in min). […] In FIG. 5B, for the dose-response study MDA-MB-453 cell line was treated at different times (minutes, x-axis) with 100, 200 or 500 nM of SP, and then activation of HER2 was determined. The results are expressed as a percentage of control (y-axis), and every experiment was done in duplicate.
In FIG. 6A cells were treated with 500 nM of SP or anti-SP antibody at 1/100 dilution for 48 hours, and the levels of the different proteins determined by Western blot. C means control. […] In FIG. 6B for the time-course studies, SKBR3 and BT474 cell lines were treated with anti-SP antibody for 24, 48 and 72 hours and protein analyzed by Western blot. […]
as §1, with “Different intensities of bands were quantified using Image Gauge software, and correct Mr was compared with pre-stained protein standards (BioRad).” left out

[1] = tested on: cyclin D1, cdk4, cdk2, p21 and p27; experiment: Cell cycle protein expression by Western blot; format: cell-based; conditions: 100 nM SP or antibody 1/100 dilution; indicator of proliferative rate
Procedure: FIG. 1A: For the study of the effect of SP and its inhibition on cell cycle protein expression, cells were treated with 100 nM of SP or antibody anti-SP at 1/100 dilution for 48 hours. The different pattern of protein expression was determined by Western blot. C (control), SP, αSP (anti-SP antibody). FIG. 1B: For the time-course studies cells were treated at the same concentration of antibody for the times indicated. FIG. 1C: The ratio between p27/cyclin D1 (y-axis) was determined as an indicator of the proliferative rate of the cells.
For the analysis of substance P treatment on HER2 and EGFR activation, cells were seeded on dishes and growth until 80% confluence. […]
as §1

CC(=O)NC1(c2ccccc2)CCN(CC[C@H](CN(C)C(=O)c2ccccc2)c2ccc(Cl)c(Cl)c2)CC1 [SR 48968]
reduction of BCC colony formation (BCC): 60%

CC(=O)N[C@@H]1[C@@H](O)[C@H](O)[C@@H](CO)O[C@H]1NC(=O)C[C@@H]1NC(=O)[C@H](CC(C)C)NC(=O)[C@@H]2CNC(=O)C[C@H](NC1=O)C(=O)N[C@@H](Cc1c[nH]c3ccccc13)C(=O)N[C@@H](Cc1ccccc1)C(=O)N2 [MEN 11420] (cyclo(D(NH(β-GlcNAc))DWF[Dap]L); lactam 2-5)
proliferation of tumor cell line MDA-MB-231 (MDA-MB-231): induced an inhibition of proliferation

Arg-Pro-Lys-Pro-Gln-Gln-Phe-Phe-Gly-Leu-Met [substance P]
activation of EGFR (phospho-EGFR) (EGFR): Activation of EGFR was observed at 2 min, with a second activation point at minute 6 | transactivation of HER2 (HER2): induces transactivation of HER2 | p27/cyclin D1 ratio [1]: caused a decrease in p27/cyclin D1 ratio

Cc1ccc(CC(=O)N(C)[C@H](Cc2ccc3ccccc3c2)C(=O)N[C@@H]2CCCC[C@@H]2NC(=O)c2c[nH]c3ccccc23)cc1 [MEN 11467]
proliferation of tumor cell line MDA-MB-231 (MDA-MB-231): induced an inhibition of proliferation
